Activity calls are given as the source filed them. The rule behind the calls is not given here.
What was measured:
HL-60 [1] = assay: Induction of apoptosis in human HL60 cells assessed as chromatin condensation and fragmentation at 30 uM after 24 hrs by quantitative fluorescent microscopy
HL-60 [2] = assay: Induction of apoptosis in human HL60 cells assessed as intranucleosomal hydrolysis of chromatin at 30 uM after 24 hrs by agarose gel electrophoresis; format: functional, cell-based
HL-60 [3] = assay: Induction of apoptosis in human HL60 cells assessed as morphological changes at 30 uM after 24 hrs by Hoechst 33258 staining; format: functional, cell-based
HL-60 [4] = assay: Cytotoxicity against human HL60 cells after 24 hrs by MTT assay; format: functional, cell-based; conditions: HL-60, 24 h

SMILES	Activity (HL-60 [1]) [%]	Activity (HL-60 [2])	Activity (HL-60 [3])	IC50 (HL-60 [4]) [µM]
CC(=O)[C@H]1CC(=O)[C@@]2(C)[C@]34O[C@@]3(C(=O)C[C@]12C)[C@@]1(C)CCC(=O)C(C)(C)[C@@H]1CC4=O	12	Active		
C/C(C=O)=C/CC[C@@H](C)[C@H]1CC[C@@]2(C)C3=CC[C@H]4C(C)(C)[C@@H](O)CC[C@]4(C)C3=CC[C@]12C	15	Active		
C/C(=C/CC[C@@H](C)[C@H]1C[C@H](O)[C@@]2(C)C3=CC[C@H]4C(C)(C)C(=O)CC[C@]4(C)C3=CC[C@]12C)CO	62	Active	Active	15.7
